Laboratory results published in US8426437B2, “Pyrroloquinoline derivatives and their use as protein kinases inhibitors” (Pierre Fabre Medicament, priority 2005, dated 2013).
Blank lines part the entries; values can stand above or below the molecule they belong to.

Legend:
536L = assay: WST test, inhibition of proliferation of 536L; type: cell-based; settings: 96 h; line 536L, tissue of origin Head/neck; four days of incubation, WST-1
Method: (§1) The inhibition of the proliferation of cell lines by certain compounds of the invention was tested. […] In the example, the lines used were derived from cancers of the uterus, central nervous system, colon, stomach, head and neck, lung, breast, pancreas, and kidney, as well as from lymphoma, myeloma, pleura, or from melanoma.
(§2) The WST test for measuring cell proliferation and viability (Roche Applied Science) is based on cleavage of a tetrazolium salt by the mitochondrial dehydrogenases in viable cells.
(§3) After four days of incubation of the compounds with the cell line, 14 μl of WST-1 reagent is added to each well and the plates are incubated for four hours at 37° in humid atmosphere at 5% CO2. The level of formazan formed is then determined by spectrophotometry at 450 nm whereas a reference is measured at 650 nm. A control with untreated cells is represented by six wells per plate and the group of treated cells is produced in triplicate for each of the concentrations measured.
(§4) The compounds are tested at five concentrations between 10 nM and 100 μM and two cytotoxic agents are used as controls: adriamycin and 5-fluorouracil.

MDA-453 = assay: WST test, inhibition of proliferation of MDA-453; type: cell-based; settings: 96 h; line MDA-453, tissue of origin Breast; four days of incubation, WST-1
Method: as §1, §2, §3, §4

SKNAS = assay: WST test, inhibition of proliferation of SKNAS; type: cell-based; settings: Homo sapiens, SK-N-AS, 96 h; line SKNAS, tissue of origin CMS; four days of incubation, WST-1
Method: as §1, §2, §3, §4

panel of cell lines = assay: Inhibition of the proliferation of a panel of cell lines (WST test); type: cell-based; settings: lines of Table XI, four days of incubation
FGFR1 (h) = molecular target: T1, FGFR1 (h) (Homo sapiens, UniProt P11362); assay: Upstate kinase panel: FGFR1; type: biochemical; settings: compound 1 μM, ATP (200), read-out: % inhibition at 1 μMol
T1 construct: purchased Upstate
T1 sequence (P11362 22-822): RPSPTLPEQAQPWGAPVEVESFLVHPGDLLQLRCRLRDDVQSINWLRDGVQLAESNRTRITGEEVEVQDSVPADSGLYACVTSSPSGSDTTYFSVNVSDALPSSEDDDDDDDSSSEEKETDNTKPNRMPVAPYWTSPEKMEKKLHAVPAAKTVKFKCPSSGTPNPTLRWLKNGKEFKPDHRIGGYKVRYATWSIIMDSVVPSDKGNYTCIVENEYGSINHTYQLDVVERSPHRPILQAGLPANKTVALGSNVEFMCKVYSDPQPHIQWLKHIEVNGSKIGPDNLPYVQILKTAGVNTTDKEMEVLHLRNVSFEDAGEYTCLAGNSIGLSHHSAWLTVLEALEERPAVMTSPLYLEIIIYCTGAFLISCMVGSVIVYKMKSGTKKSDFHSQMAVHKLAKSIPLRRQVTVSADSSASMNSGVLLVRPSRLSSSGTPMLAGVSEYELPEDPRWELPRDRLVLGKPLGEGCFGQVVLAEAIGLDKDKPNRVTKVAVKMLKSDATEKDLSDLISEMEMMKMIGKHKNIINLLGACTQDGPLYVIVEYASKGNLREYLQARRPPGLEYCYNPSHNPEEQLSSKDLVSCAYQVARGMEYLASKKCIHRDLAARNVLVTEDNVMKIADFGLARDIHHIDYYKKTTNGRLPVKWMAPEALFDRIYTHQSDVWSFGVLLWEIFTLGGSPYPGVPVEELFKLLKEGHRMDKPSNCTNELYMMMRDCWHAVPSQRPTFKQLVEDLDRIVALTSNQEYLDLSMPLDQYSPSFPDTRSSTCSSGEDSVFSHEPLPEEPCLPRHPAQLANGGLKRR
Method: (§5) These kinases are produced by Upstate and screened according to the respective protocols indicated by the supplier (http://www.upstate.com/features/kp_protocols.asp). Examples 1, 12, 166 and 238 were tested at a concentration of 20 μM, 10 μM, 1 μM and 1 μM respectively in the presence of 10 μM of ATP for examples 1 and 12 and at the concentrations of ATP shown in parentheses for examples 166 and 238. The results shown in Table VII correspond to percentage inhibition of the kinase tested in the presence of the compound, relative to a control effected without the compound.

A172 = assay: WST test, inhibition of proliferation of A172; type: cell-based; settings: Homo sapiens, A 172, 96 h; line A172, tissue of origin CMS; four days of incubation, WST-1
Method: as §1, §2, §3, §4

MDA-468 = assay: WST test, inhibition of proliferation of MDA-468; type: cell-based; settings: 96 h; line MDA-468, tissue of origin Breast; four days of incubation, WST-1
Method: as §1, §2, §3, §4

H69 = assay: WST test, inhibition of proliferation of H69; type: cell-based; settings: Homo sapiens, NCI-H69, 96 h; line H69, tissue of origin Lung (SCLC); four days of incubation, WST-1
Method: as §1, §2, §3, §4

Rsk2 (h) = molecular target: T2, Rsk2 (h) (Homo sapiens, UniProt P51812); assay: Upstate kinase panel: Rsk2; type: biochemical; settings: compound 1 μM, ATP (10), read-out: % inhibition at 1 μMol
T2 construct: purchased Upstate
T2 sequence (P51812 whole entry): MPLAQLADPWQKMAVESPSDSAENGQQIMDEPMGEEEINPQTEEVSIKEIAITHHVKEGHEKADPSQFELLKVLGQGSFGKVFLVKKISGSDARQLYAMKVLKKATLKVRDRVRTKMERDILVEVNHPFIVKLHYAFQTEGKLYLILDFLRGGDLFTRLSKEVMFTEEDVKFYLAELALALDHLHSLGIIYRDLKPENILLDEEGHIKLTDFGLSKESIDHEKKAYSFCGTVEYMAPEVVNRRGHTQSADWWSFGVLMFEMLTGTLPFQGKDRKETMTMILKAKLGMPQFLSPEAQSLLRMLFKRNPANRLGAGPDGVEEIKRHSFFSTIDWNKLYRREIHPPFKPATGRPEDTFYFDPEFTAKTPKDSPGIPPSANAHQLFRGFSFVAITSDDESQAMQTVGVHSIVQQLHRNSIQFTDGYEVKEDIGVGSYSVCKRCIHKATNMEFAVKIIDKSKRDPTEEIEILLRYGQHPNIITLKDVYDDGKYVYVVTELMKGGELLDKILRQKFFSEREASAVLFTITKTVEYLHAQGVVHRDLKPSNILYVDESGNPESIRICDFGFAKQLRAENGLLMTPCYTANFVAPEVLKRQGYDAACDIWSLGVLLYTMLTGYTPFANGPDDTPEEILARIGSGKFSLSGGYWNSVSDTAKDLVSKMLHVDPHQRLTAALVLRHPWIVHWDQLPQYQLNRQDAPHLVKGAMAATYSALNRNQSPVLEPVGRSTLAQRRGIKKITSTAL
Method: as §5

CAPAN2 = assay: WST test, inhibition of proliferation of CAPAN2; type: cell-based; settings: Homo sapiens, Capan-2, 96 h; line CAPAN2, tissue of origin Pancreas; four days of incubation, WST-1
Method: as §1, §2, §3, §4

PIM-1 = molecular target: T3, PIM-1 (Homo sapiens, UniProt P11309); assay: Inhibition of kinase PIM-1 (Kinase-Glo); type: biochemical; settings: PIM-1 0.625 μg/ml, 10 μM ATP, forty minutes at 30° C.
T3 construct: purchased Upstate 14-573
T3 sequence (P11309 whole entry): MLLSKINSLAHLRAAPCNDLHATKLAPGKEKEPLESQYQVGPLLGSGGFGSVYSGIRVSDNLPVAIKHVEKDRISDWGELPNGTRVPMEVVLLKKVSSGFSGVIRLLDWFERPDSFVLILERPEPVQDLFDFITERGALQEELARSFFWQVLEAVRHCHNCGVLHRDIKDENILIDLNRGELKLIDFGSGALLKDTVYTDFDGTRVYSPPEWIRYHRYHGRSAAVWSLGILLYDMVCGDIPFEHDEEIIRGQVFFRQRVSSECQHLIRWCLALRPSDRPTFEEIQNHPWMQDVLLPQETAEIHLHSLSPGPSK
Method in brief: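 PIM-1 (0.625 μg/ml) in MOPS/NaOH pH 7 with Mg acetate was run with 70 μM S6 kinase/Rsk2 peptide and 10 μM ATP, with compound at 10 nM–30 μM final.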

PIM-1 (h) = molecular target: T4, PIM-1 (h) (Homo sapiens, UniProt P11309); assay: Upstate kinase panel: PIM-1; type: biochemical; settings: compound 20 μM, 10 μM ATP, read-out: % inhibition at 20 μMol
T4 construct: purchased Upstate
T4 sequence (P11309 whole entry): as above
Method: as §5

TrkA (h) = molecular target: T5, TrkA (h) (Homo sapiens, UniProt P04629); assay: Upstate kinase panel: TrkA; type: biochemical; settings: compound 20 μM, 10 μM ATP, read-out: % inhibition at 20 μMol
T5 construct: purchased Upstate
Method: as §5

RET (h) = molecular target: T6, RET (h) (Homo sapiens, UniProt P07949); assay: Upstate kinase panel: RET; type: biochemical; settings: compound 20 μM, 10 μM ATP, read-out: % inhibition at 20 μMol
T6 construct: purchased Upstate
T6 sequence (P07949 29-1114): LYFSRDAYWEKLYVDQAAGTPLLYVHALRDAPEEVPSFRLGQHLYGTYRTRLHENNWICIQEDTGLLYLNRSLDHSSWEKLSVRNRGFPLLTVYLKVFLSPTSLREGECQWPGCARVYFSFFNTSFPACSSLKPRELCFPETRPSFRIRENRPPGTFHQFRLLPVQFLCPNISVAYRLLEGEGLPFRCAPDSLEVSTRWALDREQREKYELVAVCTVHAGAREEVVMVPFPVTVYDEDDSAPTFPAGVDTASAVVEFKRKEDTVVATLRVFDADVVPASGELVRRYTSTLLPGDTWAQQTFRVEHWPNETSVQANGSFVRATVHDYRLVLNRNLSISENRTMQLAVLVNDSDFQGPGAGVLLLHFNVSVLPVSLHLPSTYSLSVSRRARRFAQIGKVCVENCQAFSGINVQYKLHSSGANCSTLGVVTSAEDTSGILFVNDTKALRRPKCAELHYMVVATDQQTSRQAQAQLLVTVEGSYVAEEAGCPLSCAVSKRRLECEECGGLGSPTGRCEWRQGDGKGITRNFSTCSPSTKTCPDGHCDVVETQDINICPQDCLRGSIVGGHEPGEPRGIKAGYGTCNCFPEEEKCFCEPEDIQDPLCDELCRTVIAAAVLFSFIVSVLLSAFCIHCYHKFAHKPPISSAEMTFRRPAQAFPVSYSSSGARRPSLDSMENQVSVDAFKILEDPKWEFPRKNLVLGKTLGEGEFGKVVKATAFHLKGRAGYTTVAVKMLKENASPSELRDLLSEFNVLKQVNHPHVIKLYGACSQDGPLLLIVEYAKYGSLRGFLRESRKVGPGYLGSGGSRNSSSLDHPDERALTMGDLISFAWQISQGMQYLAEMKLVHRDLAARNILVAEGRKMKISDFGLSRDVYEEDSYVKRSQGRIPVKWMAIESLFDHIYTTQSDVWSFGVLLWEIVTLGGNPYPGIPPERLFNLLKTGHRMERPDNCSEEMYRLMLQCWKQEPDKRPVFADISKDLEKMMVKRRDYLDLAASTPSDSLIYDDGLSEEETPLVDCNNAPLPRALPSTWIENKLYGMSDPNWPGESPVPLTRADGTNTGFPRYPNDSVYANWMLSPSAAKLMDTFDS
Method: as §5

TrkB (h) = molecular target: T7, TrkB (h) (Homo sapiens, UniProt Q16620); assay: Upstate kinase panel: TrkB; type: biochemical; settings: compound 10 μM, 10 μM ATP, read-out: % inhibition at 10 μMol
T7 construct: purchased Upstate
T7 sequence (Q16620 32-822): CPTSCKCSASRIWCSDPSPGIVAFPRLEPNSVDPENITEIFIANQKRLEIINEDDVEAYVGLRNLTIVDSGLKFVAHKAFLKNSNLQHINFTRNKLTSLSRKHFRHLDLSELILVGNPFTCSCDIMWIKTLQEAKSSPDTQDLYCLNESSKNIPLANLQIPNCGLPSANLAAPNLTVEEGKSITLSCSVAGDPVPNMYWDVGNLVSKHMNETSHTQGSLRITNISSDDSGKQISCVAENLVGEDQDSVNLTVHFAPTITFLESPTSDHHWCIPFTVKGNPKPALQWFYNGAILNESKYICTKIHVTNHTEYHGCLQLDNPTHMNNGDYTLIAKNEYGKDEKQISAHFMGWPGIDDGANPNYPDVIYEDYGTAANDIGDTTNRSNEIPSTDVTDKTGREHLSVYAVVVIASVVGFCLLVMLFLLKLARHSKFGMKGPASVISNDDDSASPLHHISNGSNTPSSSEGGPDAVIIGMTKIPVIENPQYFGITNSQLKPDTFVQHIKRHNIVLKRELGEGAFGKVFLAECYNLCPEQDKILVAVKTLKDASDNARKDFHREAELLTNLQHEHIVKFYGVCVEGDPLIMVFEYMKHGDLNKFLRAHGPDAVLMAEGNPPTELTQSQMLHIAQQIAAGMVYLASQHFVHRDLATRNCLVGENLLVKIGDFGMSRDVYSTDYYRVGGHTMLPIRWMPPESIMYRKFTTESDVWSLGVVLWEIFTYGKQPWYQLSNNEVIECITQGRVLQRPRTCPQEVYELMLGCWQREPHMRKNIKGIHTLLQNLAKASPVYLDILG
Method: as §5

Hck (h) = molecular target: T8, Hck (h) (Homo sapiens, UniProt P08631); assay: Upstate kinase panel: Hck; type: biochemical; settings: compound 10 μM, 10 μM ATP, read-out: % inhibition at 10 μMol
T8 construct: purchased Upstate
T8 sequence (P08631 whole entry): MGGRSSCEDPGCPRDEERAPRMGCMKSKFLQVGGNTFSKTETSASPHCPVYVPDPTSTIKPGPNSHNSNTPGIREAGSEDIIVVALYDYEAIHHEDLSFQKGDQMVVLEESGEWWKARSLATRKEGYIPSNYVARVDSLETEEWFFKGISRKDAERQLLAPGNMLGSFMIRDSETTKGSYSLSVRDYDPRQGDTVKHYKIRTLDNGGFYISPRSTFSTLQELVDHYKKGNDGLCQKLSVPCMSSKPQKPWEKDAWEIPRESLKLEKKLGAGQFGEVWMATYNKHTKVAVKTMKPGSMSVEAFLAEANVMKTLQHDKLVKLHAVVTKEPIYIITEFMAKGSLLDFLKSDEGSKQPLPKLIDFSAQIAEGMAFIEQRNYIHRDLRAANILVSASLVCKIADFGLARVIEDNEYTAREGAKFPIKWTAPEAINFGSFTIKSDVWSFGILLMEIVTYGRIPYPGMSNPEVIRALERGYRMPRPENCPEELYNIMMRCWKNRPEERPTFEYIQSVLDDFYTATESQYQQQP
Method: as §5

IC50 (SKNAS): 12 µM
inhibition at 1 µM (FGFR1 (h)): 51%
inhibition at 1 µM (Rsk2 (h)): 25%
Compound: CCOC(=O)c1c[nH]c2c(=O)[nH]c3ccc(-c4cccc(S(C)(=O)=O)c4)cc3c12 [Compound 238, 8-(3-Methanesulfonyl-phenyl)-4-oxo-4,5-dihydro-3H-pyrrolo[2,3-c]quinoline-1-ethyl carboxylate]
IC50 (536L): 36 µM
IC50 (MDA-453): 7 µM
inhibition of proliferation of cell lines (in words) (panel of cell lines): inhibition of proliferation
IC50 (A172): 13 µM
IC50 (MDA-468): 38 µM
IC50 (H69): 0.5 µM
IC50 (CAPAN2): 47 µM

IC50 (PIM-1): 10 to 100 µM
inhibition at 20 µM (PIM-1 (h)): 92%
inhibition at 20 µM (TrkA (h)): 97%
inhibition at 20 µM (RET (h)): 99%
Compound: CCOC(=O)c1c[nH]c2c(=O)[nH]c3ccccc3c12 [Compound 1, 4-Oxo-4,5-dihydro-3H-pyrrolo[2,3-c]quinoline-1-ethyl carboxylate]

inhibition at 10 µM (TrkB (h)): 98%
inhibition at 10 µM (Hck (h)): 91%
Compound: CCOC(=O)c1c[nH]c2c(=O)[nH]c3ccc(S(=O)(=O)Nc4ccc(F)cc4)cc3c12 [Compound 12, 8-(4-Fluorophenylsulfamoyl)-4-oxo-4,5-dihydro-3H-pyrrolo[2,3-c]quinoline-1-ethyl carboxylate]
